In patent USRE40050E1, “Method for cleaning and/or disinfecting food processing equipment” (priority 1999, dated 2008):

Assays:
[1] = root beer, buffered pH about 11, integrated absorbance 440 to 700 nm vs control without CIP composition; ppm of active as per example
Protocol: For each of the five (5) experiments below, two quartz UV cells having a path length of 5.0 cm were each charged with 5.95 mL of a 0.1 molar sodium phosphate solution (to establish a buffered pH of about 11). The first cell was further charged with 0.6 mL of neat (conventional) root beer, as made commercially available. The second cell was further charged with 0.6 mL deionized water. Using the contents of the second cell as the blank, the absorbance of the resulting root beer solution was determined over the range of 440 to 700 nm, using a Hewlett-Packard 8452 UV/vis spectrophotometer. The absorbance over this wavelength range was integrated, and the percent (%) reduction in color of root beer was based on a comparison to the integrated absorbance of the control to which no CIP composition has been added.

Rhizopus stolonifer = experiment: Suspension test, percent microbes killed by CIP composition; type: cell-based; settings: suspension 7.5 log bacteria/mL, 50 ppm CaCO3
Protocol: (§1) American Type Culture Collection cultures were transferred daily and maintained on agar slants containing the appropriate growth medium^1. A loopful of the culture was transferred into 10 ml of Butterfield's phosphate buffer pH 7.2 (NutraMax Products, Inc.) and agitated to obtain a homogeneous turbid suspension. The actual concentration of microbes in suspension was estimated by its serial dilution in Butterfield's phosphate buffer and subsequent transfer of 0.1 ml of the dilution series into a Petri plate containing the appropriate agar growth medium. The inoculated Petri plates were incubated for 48-72 hours (at about 37° C.) and the resulting colonies counted with a Quebec colony counter. The number of colonies on the Petri plates multiplied by the serial dilution factor is equal to the number of microbes in 0.1 ml of inoculum.
(§2) Suspension test: 1 ml of each microbial suspension was mixed with 9 ml of each CIP composition containing 50 ppm CaCO3 at 10/9 of the recommended use concentration (RUC) so that final concentration was exact RUC. After contact times described above, 1 ml of the mixture was put to 9 ml of neutralizer^2 from which 0.1 ml of sample was plated onto the appropriate agar and incubated at 28° C. for 48-72 hours before counting. The number of colonies present on the Petri plates multiplied by the serial dilution factor is equal to the number of microbes in 0.1 ml that survived in the sanitizer solution.
(§3) The per cent microbes killed by CIP composition is calculated by using the following equation: […]
(§4) One (1) mL of suspension and 9.0 mL of CIP composition were combined, resulting in the above data. The pH of the chlorine dioxide CIP composition was 5.8, the mixed halogen is sold by DiverseyLever under the name of Divosan MH and the peroxyacetic acid was an aqueous solution having about 65% water.

Candida Albicans = experiment: as above; type: cell-based; settings: suspension 8.0 log bacteria/mL, 50 ppm CaCO3
Protocol: as §1, §2, §3, §4

Byssochlamys nivea = experiment: as above; type: cell-based; settings: suspension 8.1 log bacteria/mL, 50 ppm CaCO3
Protocol: as §1, §2, §3, §4

Zygosaccharomyces bailii = experiment: as above; type: cell-based; settings: suspension 8.5 log bacteria/mL, 50 ppm CaCO3
Protocol: as §1, §2, §3, §4

Lactobacillus brevis = experiment: as above; type: cell-based; settings: suspension 8.2 log bacteria/mL, 50 ppm CaCO3
Protocol: as §1, §2, §3, §4

Bacillus cerus = experiment: as above; type: cell-based; settings: suspension 8.5 log bacteria/mL, 50 ppm CaCO3
Protocol: as §1, §2, §3, §4

SMILES	% Reduction of Color [1] [%]	percent bacteria killed, Rhizopus stolonifer (Rhizopus stolonifer; contact 30 seconds)	percent bacteria killed, Rhizopus stolonifer (Rhizopus stolonifer; contact 2 minutes) [%]	percent bacteria killed, Candida Albicans (Candida Albicans; contact 2 minutes)	percent bacteria killed, Byssochlamys nivea (Byssochlamys nivea; contact 30 seconds)	percent bacteria killed, Byssochlamys nivea (Byssochlamys nivea; contact 2 minutes)	percent bacteria killed, Zygosaccharomyces bailii (Zygosaccharomyces bailii; contact 2 minutes) [%]	percent bacteria killed, Lactobacillus brevis (Lactobacillus brevis; contact 2 minutes) [%]	percent bacteria killed, Bacillus cerus (Bacillus cerus; contact 2 minutes) [%]	percent bacteria killed, Candida Albicans (Candida Albicans; contact 30 seconds)	percent bacteria killed, Zygosaccharomyces bailii (Zygosaccharomyces bailii; contact 30 seconds)	percent bacteria killed, Lactobacillus brevis (Lactobacillus brevis; contact 30 seconds) [%]	percent bacteria killed, Bacillus cerus (Bacillus cerus; contact 30 seconds) [%]
[O][Cl+][O-] [Example 3, chlorine dioxide]	56.09	–	–	–	–	–	–	–	–	–	–	–	–
[Na+].[O-]Cl [Example 4, sodium hypochlorite]	36.49	–	–	–	–	–	–	–	–	–	–	–	–
CC(=O)OO [Example 6, peroxyacetic acid]	25.76	–	–	–	–	–	–	–	–	–	–	–	–
[O][Cl+][O-] [Example 7, chlorine dioxide]	–	About 99.99%	~99.9999	About 99.9999%	About 99.99%	~99.9999%	~99.9999	~99.9999	~99.9999	–	–	–	–
CC(=O)OO [Example 9, Peroxyacetic acid]	–	<99%	<99	About 99.9999%	About 99.9%	About 99.99%	~99.9999	~99.9999	~99.9999	About 99.99%	About 99.99%	~99.9999	~99.99
